Reference: patent US6737383B1, “Herbicidal oxadiazolidines” (priority 1999, dated 2004)

Key:
morningglory = assay: Test B pre/postemergence morningglory; assay type: in vivo, Ipomoea hederacea
Summary of the method: (§1)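 Test chemicals in a non-phytotoxic solvent mixture with surfactant were sprayed preemergence onto planted seeds and postemergence onto plants 2 to 18 cm tall (1- to 4-leaf stage). After twelve to sixteen days in a greenhouse, injury was visually rated against untreated controls from 0 (no effect) to 10 (complete control).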

crabgrass = assay: Test B pre/postemergence crabgrass; assay type: in vivo, Digitaria sanguinalis
Summary of the method: as §1

cocklebur = assay: Test B pre/postemergence cocklebur; assay type: in vivo, Xanthium strumarium
Summary of the method: as §1

giant foxtail = assay: Test B pre/postemergence giant foxtail; assay type: in vivo, Setaria faberii
Summary of the method: as §1

rape = assay: Test B pre/postemergence rape; assay type: in vivo, Brassica napus
Summary of the method: as §1

corn = assay: Test B pre/postemergence corn; assay type: in vivo, Zea mays
Summary of the method: as §1

sugar beet = assay: Test B pre/postemergence sugar beet; assay type: in vivo, Beta vulgaris
Summary of the method: as §1

soybean = assay: Test B pre/postemergence soybean; assay type: in vivo, Glycine max
Summary of the method: as §1

blackgrass = assay: Test B pre/postemergence blackgrass; assay type: in vivo, Alopecurus myosuroides
Summary of the method: as §1

purple nutsedge = assay: Test B pre/postemergence purple nutsedge; assay type: in vivo, Cyperus rotundus
Summary of the method: as §1

surinam grass = assay: Test B pre/postemergence surinam grass; assay type: in vivo, Brachiaria decumbens
Summary of the method: as §1

wheat = assay: Test B pre/postemergence wheat; assay type: in vivo, Triticum aestivum
Summary of the method: as §1

bedstraw = assay: Test B pre/postemergence bedstraw; assay type: in vivo, Galium aparine; settings: for Bedstraw plant response rating: 10 is complete control
Summary of the method: as §1

velvetleaf = assay: Test B pre/postemergence velvetleaf; assay type: in vivo, Abutilon theophrasti
Summary of the method: as §1

pigweed = assay: Test B pre/postemergence pigweed; assay type: in vivo, Amaranthus retroflexus
Summary of the method: as §1

wild oat = assay: Test B pre/postemergence wild oat; assay type: in vivo, Avena fatua
Summary of the method: as §1

[1] = Postemergence, Rate 62 g/ha, scale of 0 to 10, 0 is no effect, 10 is complete control
[2] = Postemergence, Rate 125 g/ha, scale 0 to 10, 0 is no effect, 10 is complete control
[3] = Postemergence, Rate 500 g/ha, scale 0 to 10, 0 is no effect, 10 is complete control
[4] = Preemergence, Rate 62 g/ha, scale of 0 to 10 where 0 is no effect and 10 is complete control
[5] = Preemergence, Rate 125 g/ha, scale 0 to 10, 0 is no effect, 10 is complete control
[6] = Preemergence, Rate 500 g/ha, scale of 0 to 10 where 0 is no effect and 10 is complete control
[7] = Postemergence, Rate 250 g/ha, scale 0 to 10
[8] = Preemergence, Rate 250 g/ha, scale 0 to 10, 0 is no effect, 10 is complete control

## CC(=O)C(C)n1c(=O)on(C(=O)N(c2ccc(F)cc2F)C(C)C)c1=O (stereo not shown) [Compound 517]
morningglory; [1]
  Morningglory plant response rating: 2
morningglory; [2]
  Morningglory plant response rating: 2
morningglory; [3]
  Plant response rating, Morningglory: 2
morningglory; [4]
  Plant response rating, Morningglory: 0
morningglory; [5]
  Morningglory plant response rating: 0
morningglory; [6]
  Morningglory plant response rating: 0
crabgrass; [1]
  Crabgrass plant response rating: 7
crabgrass; [2]
  Crabgrass plant response rating: 7
crabgrass; [7]
  Crabgrass plant response rating: 8
crabgrass; [3]
  Plant response rating, Crabgrass: 9
crabgrass; [4]
  Plant response rating, Crabgrass: 4
crabgrass; [5]
  Crabgrass plant response rating: 4
crabgrass; [6]
  Crabgrass plant response rating: 7
cocklebur; [1]
  Cocklebur plant response rating: 0
cocklebur; [2]
  Cocklebur plant response rating: 0
cocklebur; [7]
  Cocklebur plant response rating: 0
cocklebur; [3]
  Plant response rating, Cocklebur: 4
cocklebur; [4]
  Plant response rating, Cocklebur: 0
cocklebur; [5]
  Cocklebur plant response rating: 0
cocklebur; [8]
  Cocklebur plant response rating: 0
cocklebur; [6]
  Cocklebur plant response rating: 0
Giant foxtail; [1]
  Giant foxtail plant response rating: 8
Giant foxtail; [2]
  Giant foxtail plant response rating: 8
Giant foxtail; [3]
  Plant response rating, Giant foxtail: 9
Giant foxtail; [4]
  Plant response rating, Giant foxtail: 2
Giant foxtail; [5]
  Giant foxtail plant response rating: 3
Giant foxtail; [6]
  Giant foxtail plant response rating: 10
rape; [1]
  Rape plant response rating: 0
rape; [2]
  Rape plant response rating: 0
rape; [3]
  Plant response rating, Rape: 4
rape; [4]
  Plant response rating, Rape: 0
rape; [5]
  Rape plant response rating: 0
rape; [6]
  Rape plant response rating: 4
corn; [1]
  Corn plant response rating: 0
corn; [2]
  Corn plant response rating: 0
corn; [7]
  Corn plant response rating: 0
corn; [3]
  Plant response rating, Corn: 4
corn; [4]
  Plant response rating, Corn: 0
corn; [5]
  Corn plant response rating: 0
corn; [6]
  Corn plant response rating: 3
Sugar beet; [1]
  Sugarbeets plant response rating: 0
Sugar beet; [2]
  Sugarbeets plant response rating: 0
Sugar beet; [3]
  Plant response rating, Sugarbeets: 3
Sugar beet; [4]
  Plant response rating, Sugarbeets: 0
Sugar beet; [5]
  Sugarbeets plant response rating: 0
Sugar beet; [6]
  Sugarbeets plant response rating: 5
soybean; [1]
  Soybean plant response rating: 0
soybean; [2]
  Soybean plant response rating: 6
soybean; [3]
  Plant response rating, Soybean: 8
soybean; [4]
  Plant response rating, Soybean: 0
soybean; [5]
  Soybean plant response rating: 0
soybean; [6]
  Soybean plant response rating: 0
blackgrass; [1]
  Blackgrass plant response rating: 0
blackgrass; [2]
  Blackgrass plant response rating: 3
blackgrass; [7]
  Blackgrass plant response rating: 6
blackgrass; [3]
  Plant response rating, Blackgrass: 6
blackgrass; [4]
  Plant response rating, Blackgrass: 2
blackgrass; [5]
  Blackgrass plant response rating: 2
blackgrass; [8]
  Blackgrass plant response rating: 4
blackgrass; [6]
  Blackgrass plant response rating: 4
Purple nutsedge; [1]
  Nutsedge plant response rating: 0
Purple nutsedge; [2]
  Nutsedge plant response rating: 0
Purple nutsedge; [4]
  Plant response rating, Nutsedge: 0
Purple nutsedge; [5]
  Nutsedge plant response rating: 0
Purple nutsedge; [6]
  Nutsedge plant response rating: 0
Surinam grass; [1]
  B. signalgrass plant response rating: 0
Surinam grass; [2]
  B. signalgrass plant response rating: 4
Surinam grass; Postemergence, Rate 250 g/ha, scale 0 to 10, 0 no effect, 10 complete control
  B. signalgrass plant response rating: 6
Surinam grass; [3]
  Plant response rating, B. signalgrass: 8
Surinam grass; [4]
  Plant response rating, B. signalgrass: 0
Surinam grass; [5]
  B. signalgrass plant response rating: 0
Surinam grass; [8]
  B. signalgrass plant response rating: 0
Surinam grass; Preemergence, Rate 500 g/ha, scale 0 to 10, 0 is no effect, 10 is complete control
  B. signalgrass plant response rating: 0
wheat; [1]
  Wheat plant response rating: 0
wheat; [2]
  Wheat plant response rating: 0
wheat; [3]
  Plant response rating, Wheat: 4
wheat; [4]
  Plant response rating, Wheat: 0
wheat; [5]
  Wheat plant response rating: 0
wheat; [6]
  Wheat plant response rating: 6
bedstraw; Postemergence, Rate 62 g/ha, scale of 0 to 10, 0 is no effect
  Bedstraw plant response rating: 4
bedstraw; Postemergence, Rate 125 g/ha, scale 0 to 10, 0 is no effect
  Bedstraw plant response rating: 7
bedstraw; [4]
  Plant response rating, Bedstraw: 0
bedstraw; Preemergence, Rate 125 g/ha, scale 0 to 10, 0 is no effect
  Bedstraw plant response rating: 0
bedstraw; Preemergence, Rate 250 g/ha, scale 0 to 10, 0 is no effect
  Bedstraw plant response rating: 0
bedstraw; Preemergence, Rate 500 g/ha, scale 0 to 10, 0 is no effect
  Bedstraw plant response rating: 0
velvetleaf; [1]
  Velvetleaf plant response rating: 0
velvetleaf; [2]
  Velvetleaf plant response rating: 0
velvetleaf; [3]
  Plant response rating, Velvetleaf: 6
velvetleaf; [4]
  Plant response rating, Velvetleaf: 0
velvetleaf; [5]
  Velvetleaf plant response rating: 0
velvetleaf; [6]
  Velvetleaf plant response rating: 3
pigweed; [1]
  Redroot pigweed plant response rating: 0
pigweed; [2]
  Redroot pigweed plant response rating: 4
pigweed; [3]
  Plant response rating, Redroot pigweed: 7
pigweed; [4]
  Plant response rating, Redroot pigweed: 8
pigweed; [5]
  Redroot pigweed plant response rating: 9
pigweed; [6]
  Redroot pigweed plant response rating: 10
Wild oat; [1]
  Wild oats plant response rating: 0
Wild oat; [2]
  Wild oats plant response rating: 0
Wild oat; [3]
  Plant response rating, Wild oats: 3
Wild oat; [4]
  Plant response rating, Wild oats: 4
Wild oat; [5]
  Wild oats plant response rating: 4
Wild oat; [6]
  Wild oats plant response rating: 5
